According to ChEMBL document CHEMBL3879893, “Nuclear transport modulators and uses thereof” (2011):
Activity calls are given as the source filed them. No cut-off for these calls is given here.

Key:
[1] = molecular target: T1, Exportin-1 (Homo sapiens, UniProt O14980); assay: Inhibition of Crm1 in human U2OS cells expressing GFP-fused HIV1 Rev assessed as decrease in nuclear export of GFP-fused HIV1 Rev after 1 hr by Hoechst 33258 staining-based assay; format: cell-based
[2] = system: BL-41; assay: Cytotoxicity against human BL41 cells after 72 hrs by CellTiter96 AQueous one solution cell proliferation assay; format: functional, cell-based
[3] = system: Jurkat; assay: Cytotoxicity against human Jurkat cells after 72 hrs by CellTiter96 AQueous one solution cell proliferation assay; format: functional, cell-based
[4] = system: MM1R; assay: Cytotoxicity against human MM1R cells after 72 hrs by CellTiter96 AQueous one solution cell proliferation assay; format: functional, cell-based
[5] = system: HCT-116; assay: Cytotoxicity against human HCT116 cells after 72 hrs by CellTiter96 AQueous one solution cell proliferation assay; format: functional, cell-based
[6] = system: HS-Sultan; assay: Cytotoxicity against human HS-Sultan cells after 72 hrs by CellTiter96 AQueous one solution cell proliferation assay; format: functional, cell-based
[7] = system: PC-3; assay: Cytotoxicity against human PC3 cells after 72 hrs by CellTiter96 AQueous one solution cell proliferation assay; format: functional, cell-based
[8] = system: MG-63; assay: Cytotoxicity against human MG63 cells after 72 hrs by CellTiter96 AQueous one solution cell proliferation assay; format: functional, cell-based
[9] = system: SW480; assay: Cytotoxicity against human SW480 cells after 72 hrs by CellTiter96 AQueous one solution cell proliferation assay; format: functional, cell-based
[10] = system: NCI-H460; assay: Cytotoxicity against human NCI-H460 cells after 72 hrs by CellTiter96 AQueous one solution cell proliferation assay; format: functional, cell-based
[11] = system: LoVo; assay: Cytotoxicity against human LoVo cells after 72 hrs by CellTiter96 AQueous one solution cell proliferation assay; format: functional, cell-based
[12] = system: NCI-H520; assay: Cytotoxicity against human NCI-H520 cells after 72 hrs by CellTiter96 AQueous one solution cell proliferation assay; format: functional, cell-based
[13] = system: COLO 320; assay: Cytotoxicity against human COLO320 cells after 72 hrs by CellTiter96 AQueous one solution cell proliferation assay; format: functional, cell-based
[14] = system: RPMI18226; assay: Cytotoxicity against human […] cells after 72 hrs by CellTiter96 AQueous one solution cell proliferation assay; format: functional, cell-based
[15] = system: SW-620; assay: Cytotoxicity against human SW620 cells after 72 hrs by CellTiter96 AQueous one solution cell proliferation assay; format: functional, cell-based
[16] = species on record: Homo sapiens; assay: Cytotoxicity against human LS123 cells after 72 hrs by CellTiter96 AQueous one solution cell proliferation assay; format: functional, cell-based
[17] = system: NCI-H226; assay: Cytotoxicity against human NCI-H226 cells after 72 hrs by CellTiter96 AQueous one solution cell proliferation assay; format: functional, cell-based
[18] = system: MCF7; assay: Cytotoxicity against human MCF7 cells after 72 hrs by CellTiter96 AQueous one solution cell proliferation assay; format: functional, cell-based
[19] = system: HCC4006; assay: Cytotoxicity against human HCC4006 cells after 72 hrs by CellTiter96 AQueous one solution cell proliferation assay; format: functional, cell-based
[20] = system: HCT-15; assay: Cytotoxicity against human HCT15 cells after 72 hrs by CellTiter96 AQueous one solution cell proliferation assay; format: functional, cell-based
[21] = system: 786-0; assay: Cytotoxicity against human 786-0 cells after 72 hrs by CellTiter96 AQueous one solution cell proliferation assay; format: functional, cell-based
[22] = system: HCC827; assay: Cytotoxicity against human HCC827 cells after 72 hrs by CellTiter96 AQueous one solution cell proliferation assay; format: functional, cell-based
[23] = system: NCI-H1838; assay: Cytotoxicity against human NCI-H1838 cells after 72 hrs by CellTiter96 AQueous one solution cell proliferation assay; format: functional, cell-based
[24] = system: 4T1; assay: Cytotoxicity against mouse 4T1 cells after 72 hrs by CellTiter96 AQueous one solution cell proliferation assay; format: functional, cell-based
[25] = system: HeLa; assay: Cytotoxicity against human HeLa cells after 72 hrs by CellTiter96 AQueous one solution cell proliferation assay; format: functional, cell-based
[26] = system: HPAC; assay: Cytotoxicity against human HPAC cells after 72 hrs by CellTiter96 AQueous one solution cell proliferation assay; format: functional, cell-based
[27] = system: Caov-3; assay: Cytotoxicity against human Caov3 cells after 72 hrs by CellTiter96 AQueous one solution cell proliferation assay; format: functional, cell-based
[28] = system: DLD-1; assay: Cytotoxicity against human DLD1 cells after 72 hrs by CellTiter96 AQueous one solution cell proliferation assay; format: functional, cell-based
[29] = system: DU-145; assay: Cytotoxicity against human DU145 cells after 72 hrs by CellTiter96 AQueous one solution cell proliferation assay; format: functional, cell-based
[30] = system: LS180; assay: Cytotoxicity against human LS180 cells after 72 hrs by CellTiter96 AQueous one solution cell proliferation assay; format: functional, cell-based
[31] = system: HCT-8; assay: Cytotoxicity against human HCT8 cells after 72 hrs by CellTiter96 AQueous one solution cell proliferation assay; format: functional, cell-based
[32] = system: NCI-H2122; assay: Cytotoxicity against human NCI-H2122 cells after 72 hrs by CellTiter96 AQueous one solution cell proliferation assay; format: functional, cell-based
[33] = system: WiDr; assay: Cytotoxicity against human WiDr cells after 72 hrs by CellTiter96 AQueous one solution cell proliferation assay; format: functional, cell-based
[34] = species on record: Homo sapiens; assay: Cytotoxicity against human H2935 cells after 72 hrs by CellTiter96 AQueous one solution cell proliferation assay; format: functional, cell-based
[35] = system: NCI-H2030; assay: Cytotoxicity against human NCI-H2030 cells after 72 hrs by CellTiter96 AQueous one solution cell proliferation assay; format: functional, cell-based
[36] = molecular target: T1, Exportin-1; assay: Inhibition of Crm1 in human MM1S cells assessed as potentiation of bortezomib-induced antiproliferative activity by measuring cell survival at 30 to 300 nM after 72 hrs by MTT assay; format: cell-based
[37] = molecular target: T1, Exportin-1; assay: Inhibition of Crm1 in human MM1R cells assessed as potentiation of bortezomib-induced antiproliferative activity by measuring cell survival at 30 to 300 nM after 72 hrs by MTT assay; format: cell-based
[38] = molecular target: T1, Exportin-1; assay: Inhibition of Crm1 in human HS-Sultan cells assessed as potentiation of bortezomib-induced antiproliferative activity by measuring cell survival at 30 to 300 nM after 72 hrs by MTT assay; format: cell-based
[39] = molecular target: T1, Exportin-1; assay: Inhibition of Crm1 in human Jurkat cells assessed as potentiation of bortezomib-induced antiproliferative activity by measuring cell survival at 30 to 300 nM after 72 hrs by MTT assay; format: cell-based
[40] = system: MM1.S; assay: Antitumor activity against 130 mm'3 human MM1S cells xenografted in mouse assessed as tumor growth inhibition at 150 mg/kg, sc qd administered for 5 days; format: functional, organism-based
[41] = system: MM1.S; assay: Antitumor activity against 1300 mm'3 human MM1S cells xenografted in mouse assessed as tumor growth inhibition at 150 mg/kg, sc qd administered for 5 days; format: functional, organism-based
[42] = Antitumor activity against 350 mm'3 human HCT116 cells xenografted in mouse assessed as tumor growth inhibition at 75 mg/kg, sc qd administered for 5 days measured after day 24 relative to control; format: functional; settings: HCT-116, sc, read-out: TGI
[43] = Antitumor activity against 350 mm'3 human HCT116 cells xenografted in mouse assessed as tumor growth inhibition at 150 mg/kg, sc qd administered for 5 days started on day 9 post 75 mg/kg dosing measured after day 24 relative to control; format: functional, HCT-116
[44] = Toxicity in mouse xenografted with 350 mm'3 human HCT116 cells assessed as effect on clinical chemistry parameters at 150 mg/kg, sc qd administered for 5 days started on day 9 post 75 mg/kg dosing; format: organism-based, HCT-116; settings: in vivo, 120 h
[45] = Toxicity in mouse xenografted with 350 mm'3 human HCT116 cells assessed as effect on complete blood count at 150 mg/kg, sc qd administered for 5 days started on day 9 post 75 mg/kg dosing; format: organism-based, HCT-116; settings: in vivo, 120 h

T1 sequence (O14980 whole entry, the tested form may be a part): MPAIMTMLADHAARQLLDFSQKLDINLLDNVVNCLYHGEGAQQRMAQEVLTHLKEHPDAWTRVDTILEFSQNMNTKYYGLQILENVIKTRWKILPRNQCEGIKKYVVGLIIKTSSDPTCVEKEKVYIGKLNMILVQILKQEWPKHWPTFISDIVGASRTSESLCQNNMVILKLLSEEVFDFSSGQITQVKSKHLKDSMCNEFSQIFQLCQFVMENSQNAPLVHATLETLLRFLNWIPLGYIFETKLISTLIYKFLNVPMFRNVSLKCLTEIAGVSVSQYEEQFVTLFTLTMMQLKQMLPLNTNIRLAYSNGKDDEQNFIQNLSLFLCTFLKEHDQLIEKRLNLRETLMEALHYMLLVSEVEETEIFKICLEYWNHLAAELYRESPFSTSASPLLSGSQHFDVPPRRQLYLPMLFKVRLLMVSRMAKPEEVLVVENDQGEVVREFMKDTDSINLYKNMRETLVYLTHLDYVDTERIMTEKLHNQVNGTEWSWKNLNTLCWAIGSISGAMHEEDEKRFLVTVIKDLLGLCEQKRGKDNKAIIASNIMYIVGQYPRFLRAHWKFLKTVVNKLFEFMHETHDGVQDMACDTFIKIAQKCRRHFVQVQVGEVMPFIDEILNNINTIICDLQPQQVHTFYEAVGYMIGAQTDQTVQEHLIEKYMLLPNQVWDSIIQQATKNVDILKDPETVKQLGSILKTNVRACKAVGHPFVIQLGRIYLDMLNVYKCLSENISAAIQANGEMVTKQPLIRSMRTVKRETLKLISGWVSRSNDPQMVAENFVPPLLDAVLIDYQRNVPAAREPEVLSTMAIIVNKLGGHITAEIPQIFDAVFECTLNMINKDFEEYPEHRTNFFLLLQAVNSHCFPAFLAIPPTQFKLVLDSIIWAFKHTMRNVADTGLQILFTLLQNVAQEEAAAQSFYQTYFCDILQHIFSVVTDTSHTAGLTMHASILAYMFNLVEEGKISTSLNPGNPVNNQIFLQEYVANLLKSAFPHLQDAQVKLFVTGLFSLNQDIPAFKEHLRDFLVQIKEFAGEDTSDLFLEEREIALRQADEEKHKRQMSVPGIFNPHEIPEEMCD

With CC(C)OC(=O)/C=C\n1cnc(-c2ccc(Cl)cc2)n1 the IC50 [1] was ≤ 1000 nM, the Activity [2] was “Active” and the Activity [3] was “Active”. For the same molecule, the Activity [4] was “Active”, the Activity [5] was “Active” and the Activity [6] was “Active”. The Activity [7] was “Active”, the Activity [8] was “Active” and the Activity [9] was “Active”. For the same molecule, the Activity [10] was “Active”, the Activity [11] was “Active” and the Activity [12] was “Active”. For the same molecule, the Activity [13] was “Active”, the Activity [14] was “Active” and the Activity [15] was “Active”. For the same molecule, the Activity [16] was “Active”, the Activity [17] was “Active” and the Activity [18] was “Active”. The Activity [19] was “Active”, the Activity [20] was “Active” and the Activity [21] was “Active”. The Activity [22] was “Active”, the Activity [23] was “Active” and the Activity [24] was “Active”. The Activity [25] was “Active”, the Activity [26] was “Active” and the Activity [27] was “Active”. The Activity [28] was “Active”, the Activity [29] was “Active” and the Activity [30] was “Active”. For the same molecule, the Activity [31] was “Active”, the Activity [32] was “Active” and the Activity [33] was “Active”. For the same molecule, the Activity [34] was “Active”, the Activity [35] was “Active” and the inhibition [36] was “Active”. The inhibition [37] was “Active”, the inhibition [38] was “Active” and the inhibition [39] was “Active”. For the same molecule, the TGI [40] was “Active”, the TGI [41] was “Active” and the inhibition in vivo at 75 mg/kg [42] was 31%. For the same molecule, the TGI [43] was 60%, the Activity [44] was “Non-Toxic” and the Activity [45] was “Non-Toxic”.
